# Laboratory results reported in patent publication US6916905B2, “Dmt-Tic di-and tri-peptidic derivatives and related compositions and methods of use” (The United States of America as represented by the …, priority 2000, dated 2005).
# “Also recorded” adds a separate entry of the source. Where two headings read alike, the source gives them in different places. Marks after values point to notes of the source that are not given here. Non-standard residues stand in square brackets, D forms with d. Residues, ends and D or L forms follow the SMILES beside them. *: point of attachment. Dmt = Cc1cc(O)cc(C)c1C[C@H](N)C(=O)O; Tic = O=C(O)[C@@H]1Cc2ccccc2CN1; NHPh = c1ccc(N*)cc1
# Experiments:
# δ-opioid receptors [1] = biological target: T1, δ-opioid receptors (Rattus norvegicus, UniProt P33533); assay: Rat brain synaptosome (P2) binding, agonist [3H]DPDPE (Example 47); details: for Ki: rat brain synaptosomes (P2), mean ± SEM, n in parentheses, read-out: Kiδ(nM) [^3H]DPDPE
# T1 construct: assayed with a rat brain synaptosomal preparation (P2); from tissue; host or cells: rat brain P2 synaptosomes
# T1 sequence (P33533 whole entry): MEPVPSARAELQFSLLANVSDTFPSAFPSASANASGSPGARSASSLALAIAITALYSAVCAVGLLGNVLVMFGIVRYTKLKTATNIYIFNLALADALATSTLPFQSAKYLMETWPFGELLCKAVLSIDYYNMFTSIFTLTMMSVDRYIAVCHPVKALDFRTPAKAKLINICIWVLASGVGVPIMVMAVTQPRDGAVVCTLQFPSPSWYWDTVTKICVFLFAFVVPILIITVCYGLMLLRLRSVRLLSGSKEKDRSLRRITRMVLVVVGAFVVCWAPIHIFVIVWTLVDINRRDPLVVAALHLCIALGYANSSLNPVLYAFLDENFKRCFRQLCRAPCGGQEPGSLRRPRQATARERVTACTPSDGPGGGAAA
# Procedure: (§3) Briefly, the agonists [^3H]DPDPE (30-60 Ci/mmol, NEN-DuPont) and [^3H]DAGO (30-60 Ci/mmol, Amersham) were used to label δ and μ sites, respectively, under saturation binding conditions (2 hrs at 22° C.). Excess unlabeled peptide (2 μM) established non-specific binding levels and the labeled membranes were rapidly filtered on Whatman GF/C glass fibre filters, thoroughly washed, dried and measured for radioactivity using CytoScint (ICN, Irvine, Calif.). […] The affinity constants (Ki) were calculated according to Cheng and Prusoff (Biochem. Pharmacol. 22: 3099-3108 (1973)).
# δ-opioid receptors [2] = biological target: T1, δ-opioid receptors; assay: Rat brain synaptosome (P2) binding, δ antagonist [3H]N,N(CH3)2-Dmt-Tic-OH (Example 47); details: for Antagonist K1μ/Kiδ: selectivity, Kiδ from antagonist radioligand [3H]N,N(CH3)2-Dmt-Tic-OH
# Procedure: as §3
# μ-opioid receptors = biological target: T2, μ-opioid receptors (Rattus norvegicus, UniProt P33535); assay: Rat brain synaptosome (P2) binding, [3H]DAGO (Example 47); details: rat brain synaptosomes (P2); mean ± SEM, n in parentheses; read-out: Kiμ (nM) [^3H]DAGO
# T2 construct: assayed with a rat brain synaptosomal preparation (P2); from tissue; host or cells: rat brain P2 synaptosomes
# T2 sequence (P33535 whole entry): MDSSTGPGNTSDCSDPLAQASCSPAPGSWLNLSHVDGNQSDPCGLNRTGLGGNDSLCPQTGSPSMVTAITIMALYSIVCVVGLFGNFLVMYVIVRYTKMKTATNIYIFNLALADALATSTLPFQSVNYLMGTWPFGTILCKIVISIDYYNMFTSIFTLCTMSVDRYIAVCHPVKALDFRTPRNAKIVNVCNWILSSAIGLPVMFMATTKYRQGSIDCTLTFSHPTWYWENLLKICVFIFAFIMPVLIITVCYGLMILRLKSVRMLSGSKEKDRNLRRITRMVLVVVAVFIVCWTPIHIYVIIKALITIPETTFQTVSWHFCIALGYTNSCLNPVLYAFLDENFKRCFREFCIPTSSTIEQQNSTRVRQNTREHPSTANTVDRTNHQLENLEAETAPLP
# δ receptors [3] = biological target: T3, δ receptors (Mus musculus, UniProt P32300); details: for MVD Ke: δ antagonism, Ke = antilog of pA2
# T3 sequence (P32300 whole entry): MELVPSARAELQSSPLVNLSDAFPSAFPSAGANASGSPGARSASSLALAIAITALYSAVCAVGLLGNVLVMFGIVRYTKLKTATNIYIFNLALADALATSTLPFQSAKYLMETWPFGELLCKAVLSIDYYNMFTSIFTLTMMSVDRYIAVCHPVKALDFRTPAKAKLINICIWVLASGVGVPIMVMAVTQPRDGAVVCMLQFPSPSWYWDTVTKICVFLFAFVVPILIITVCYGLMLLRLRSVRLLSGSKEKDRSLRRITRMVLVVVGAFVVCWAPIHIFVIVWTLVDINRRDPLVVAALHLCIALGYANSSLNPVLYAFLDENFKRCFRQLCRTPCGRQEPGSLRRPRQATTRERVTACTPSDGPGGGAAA
# Procedure: (§1) The functional bioactivity of the present inventive compounds was assessed using standard functional bioassays of δ and μ activity in MVD and GPI (Salvadori et al. (1995), supra; and Salvadori et al., J. Med. Chem. 36: 3748-3756 (1993)). […] Dose-response curves were obtained (Salvadori et al. (1995), supra) for both tissues. […] Data were derived from at least four independent tissue samples and dose-response curves from which the pA2 values were determined (Salvadori et al. (1997), supra) according to Arunlakshana and Schild (Br. J. Pharmacol. 14: 48-58 (1959)).
# hMDR-1 = hMDR-1 (Homo sapiens, UniProt P08183); assay: Calcein AM assay for Pgp in hMDR-1 transfected G-185 fibroblasts (Example 49); details: calcein fluorescence
# hMDR-1, sequence (P08183 whole entry): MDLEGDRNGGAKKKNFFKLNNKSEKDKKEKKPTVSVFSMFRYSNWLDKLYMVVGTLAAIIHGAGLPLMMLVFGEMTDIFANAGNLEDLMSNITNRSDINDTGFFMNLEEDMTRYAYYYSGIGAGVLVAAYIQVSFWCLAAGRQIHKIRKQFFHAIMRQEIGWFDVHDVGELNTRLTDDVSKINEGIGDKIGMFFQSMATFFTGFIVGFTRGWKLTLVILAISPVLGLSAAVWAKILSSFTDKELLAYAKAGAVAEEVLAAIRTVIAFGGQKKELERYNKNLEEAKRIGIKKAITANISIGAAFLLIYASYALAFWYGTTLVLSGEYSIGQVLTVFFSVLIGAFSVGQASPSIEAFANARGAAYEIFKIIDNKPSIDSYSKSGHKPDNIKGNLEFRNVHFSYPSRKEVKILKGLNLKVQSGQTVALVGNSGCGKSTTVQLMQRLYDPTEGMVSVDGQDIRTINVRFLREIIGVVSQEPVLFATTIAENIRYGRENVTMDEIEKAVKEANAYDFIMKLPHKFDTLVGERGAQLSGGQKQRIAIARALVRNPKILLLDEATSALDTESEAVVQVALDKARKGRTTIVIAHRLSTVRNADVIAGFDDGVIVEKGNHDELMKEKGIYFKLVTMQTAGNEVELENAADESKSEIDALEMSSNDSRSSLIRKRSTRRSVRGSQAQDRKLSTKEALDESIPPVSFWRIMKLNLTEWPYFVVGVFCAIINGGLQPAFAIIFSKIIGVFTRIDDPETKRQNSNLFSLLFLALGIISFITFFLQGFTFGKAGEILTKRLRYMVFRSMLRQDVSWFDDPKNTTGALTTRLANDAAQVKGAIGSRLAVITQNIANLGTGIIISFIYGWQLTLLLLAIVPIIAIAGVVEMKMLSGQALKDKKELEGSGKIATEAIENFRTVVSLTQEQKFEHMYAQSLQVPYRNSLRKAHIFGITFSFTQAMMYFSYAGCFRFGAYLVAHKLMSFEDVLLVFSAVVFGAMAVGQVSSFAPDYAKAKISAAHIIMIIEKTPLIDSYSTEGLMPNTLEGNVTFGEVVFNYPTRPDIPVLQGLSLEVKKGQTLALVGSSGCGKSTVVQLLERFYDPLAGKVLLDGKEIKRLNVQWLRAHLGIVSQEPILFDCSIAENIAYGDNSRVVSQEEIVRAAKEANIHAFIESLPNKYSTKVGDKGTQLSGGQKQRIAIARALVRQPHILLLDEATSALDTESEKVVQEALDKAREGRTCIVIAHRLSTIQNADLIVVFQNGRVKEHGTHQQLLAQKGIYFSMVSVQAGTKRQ
# Procedure: Stably transfected G-185 fibroblasts containing hMDR-1 and NIH 3T3 cell lines were grown to confluent monolayers in DMEM containing 4.5 g glucose/1, 10% fetal calf serum, L-glutamine, penicillin (50 units/ml), streptomycin (50 μg/ml) and 1 mM sodium pyruvate in 5% CO2 at 37° C. G-185 cells were maintained in […] colchicine.
# The assay for Pgp is based on the diffusion of non-fluorescent calcein AM across the cell membrane. Calcein AM is then hydrolyzed and accumulates as the fluorescent calcein. In transfected cells expressing excess hMDR-1, Pgp extrudes calcein AM from the cell before hydrolysis occurs; inhibition of hMDR-1 results in the accumulation of intracellular calcein. Transfected G-185 cells and the NIH 3T3 cells were analyzed in triplicate using seven graded dosages of verapamil or the opioid peptides in 96-well plates. Cells (2.5×10^6/well) were incubated in 100 μl culture medium for 15 min at 37° C. and 50 μl of 1 μM calcein AM in PBS, plus 50 μl of verapamil or one of the present inventive compounds in PBS, or 100 μl of PBS alone (control) were added. Cells were mixed and incubated for 15 min at 37° C., then centrifuged for 5 min at 2,000×g, and then washed three times in 200 μl PBS. Cell pellets were resuspended in 200 μl PBS and transferred to white Microfluor Plates (Nunc, Copenhagen, Denmark) in order to measure calcein-specific fluorescence (494 nm absorption; 517 nm emission). Internal controls were carried out with each experiment using verapamil and PBS in order to compare the consistency between cell preparations. Means±SE (error bars) were determined and plotted using Prism™ (GraphPad, San Diego, Calif.).
# δ receptors [4] = biological target: T4, δ receptors (Rattus norvegicus, UniProt P33533); assay: Radio-receptor competition assay, rat brain synaptosomes, [3H]DPDPE (Example 74); type: binding; details: for Ki: rat brain P2 synaptosomes, [3H]DPDPE, read-out: Receptor affinity (nM) Kiδ; for μ/δ: selectivity Kiμ/Kiδ
# T4 construct: assayed with a rat brain synaptosomal preparation (P2); from tissue; host or cells: rat brain P2 synaptosomes
# T4 sequence (P33533 whole entry): as the sequence (P33533 whole entry) above
# Procedure: (§2) After 120 min incubation at room temperature (23-24° C.), the samples were rapidly filtered through Whatman GF/C glass fiber filers and washed three times with 2 ml ice-cold 0.05 M Tris, pH 7.4-7.5, containing 0.1% BSA. Presoaking filters in 0.1% polyethylenimine is only required in assays with peptides carrying an overall positive charge, such as dynorphin or nociceptin (Guerrini et al., J. Med. Chem., 40: 1789-1793 (1997)). Non-specific binding was determined using 2 μM unlabeled DPDPE or DAGO for δ or μ assays, respectively. The Ki data, determined according to Cheng and Prusoff (Cheng et al., Biochem. Pharmacol., 22: 3099-3108 (1973)), represent the means±SE from 3 or more independent assays using at least 3 different synaptosome preparations and testing the analogues with 5-8 graded dosages over 2-3 orders of magnitude in concentration.
# μ receptors [5] = biological target: T5, μ receptors (Rattus norvegicus, UniProt P33535); assay: Radio-receptor competition assay, rat brain synaptosomes, [3H]DAGO (Example 74); type: binding; details: for Ki: rat brain P2 synaptosomes, [3H]DAGO
# T5 construct: assayed with a rat brain synaptosomal preparation (P2); from tissue; host or cells: rat brain P2 synaptosomes
# T5 sequence (P33535 whole entry): as the sequence (P33535 whole entry) above
# Procedure: as §2
# δ-opioid receptors [6] = biological target: T1, δ-opioid receptors; details: selectivity; Kiδ from [3H]DPDPE; cells marked a/b: Salvadori et al. (1995), (1997); cited from earlier work
# μ receptors [7] = biological target: T6, μ receptors (Cavia porcellus, UniProt P97266); details: Balboni et al. (2000); read-out: μ agonist activity IC50, published data; cited from earlier work
# T6 sequence (P97266 whole entry, looked up): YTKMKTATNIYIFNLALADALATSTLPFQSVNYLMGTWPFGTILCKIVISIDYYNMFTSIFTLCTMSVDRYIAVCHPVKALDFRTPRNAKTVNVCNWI
# δ receptors [8] = biological target: T3, δ receptors; assay: MVD functional pharmacological bioassay (Example 75); design: A single MVD was suspended in 4 ml modified Kreb's solution; from tissue; host or cells: mouse vas deferens; details: for MVD, antagonist activity (pA2) N,N(CH3)2-Dmt-Tic-OH: pA2 of N,N(CH3)2-Dmt-Tic-OH against the listed δ agonist; for MVD, antagonist activity (pA2) naloxone: pA2 of naloxone against the listed δ agonist
# δ receptors [9] = biological target: T3, δ receptors; design: A single MVD was suspended in 4 ml modified Kreb's solution; from tissue; host or cells: mouse vas deferens; details: Balboni et al. (2000); cited from earlier work
# μ receptors [10] = biological target: T6, μ receptors; assay: GPI functional pharmacological bioassay (Example 75); design: species or system guinea pig; details: μ agonism
# Procedure: The in vitro pharmacological assays used a single MVD for δ receptors and a 2- to 3-cm segment of GPI for μ receptors with each suspended in 20 ml organ baths containing balanced salt solutions in a physiological buffer (Salvadori et al., Mol. Med., 1: 678-689 (1995)). […] Data were obtained from 4 independent assays and tissue samples. Agonism is expressed as the IC50 (nM) value and antagonism as pA2 (Labarre et al., Eur. J. Pharm., 406: R1-R3 92000)).
# δ-opioid receptors [11] = biological target: T1, δ-opioid receptors; details: radioligand; Kertesz et al. (1998); cited from earlier work
# μ receptors [12] = biological target: T6, μ receptors; assay: Guinea pig ileum (GPI) functional bioassay (Example 48)
# Procedure: as §1
# [13] = read-out: Receptor affinity (nM) Kiμ
compound,measurement,setting,value
"Cc1cc(O)cc(C)c1C[C@H](N)C(=O)N1Cc2ccccc2C[C@H]1C(=O)N[C@@H](C)C(N)=O [H-Dmt-Tic-Ala-NH2, reference compound] (H-[Dmt]-[Tic]-Ala-NH2)",Ki,δ-opioid receptors [1],0.24 ± 0.02 nM
same,Antagonist K1μ/Kiδ,δ-opioid receptors [2],68
same,Ki,μ-opioid receptors,47 ± 3.4 nM
same,MVD Ke,δ receptors [3],9.0 nM
same,"inhibition of hMDR-1 (Pgp), in words",hMDR-1,inactive
same,Ki,δ receptors [4],0.22 nM
same,μ/δ,δ receptors [4],195
same,Ki,μ receptors [5]; [13],47 nM
same,Agonist K1μ/Kiδ,δ-opioid receptors [6],195^a
"Cc1cc(O)cc(C)c1CC(N)C(=O)N1Cc2ccccc2CC1c1nc2ccccc2[nH]1 (stereo not shown) [Compound 23, 2-amino-1-[3-(1H-benzoimidazole-2-yl)-3,4-dihydro-1H-isoquinoline-2-yl]-3-(4-hydroxyl-2,6-dimethylphenyl)-propane-1-one]",δ binding affinity greater than H-Dmt-Tic-ol,δ receptors [4],3 fold
same,δ binding affinity higher than H-Dmt-Tic-NH2,δ receptors [4],10 fold
same,Ki,δ receptors [4],0.13 nM
same,μ/δ,δ receptors [4],7.28
same,increase in μ receptor affinity relative to H-Dmt-Tic-NH2,μ receptors [5],~40 fold
same,Ki,μ receptors [5]; [13],7.22 nM
same,IC50,μ receptors [7],30 nM
same,reduction of electrical stimulation of the tissue,δ receptors [8]; high concentration (up to 1 μM),83%
same,"δ antagonism pA2, published data",δ receptors [9],7.67
"Cc1cc(O)cc(C)c1C[C@@H](C(=O)N1Cc2ccccc2C[C@H]1C(=O)O)N(C)C [N,N(Me)2-Dmt-Tic-OH, reference compound]",Antagonist K1μ/Kiδ,δ-opioid receptors [2],34785
same,Ki,μ-opioid receptors,2440 ± 462 nM
same,MVD pA2 (range),"δ receptors [3]; δ antagonism against deltorphin C, mean (range)",9.4
same,"inhibition of hMDR-1 (Pgp), in words",hMDR-1,inactive
same,Agonist K1μ/Kiδ,δ-opioid receptors [6],20636^b
Cc1cc(O)cc(C)c1C[C@H](N)C(=O)N1Cc2ccccc2C[C@H]1C(N)=O [H-Dmt-Tic-NH2] (H-[Dmt]-[Tic]-NH2),Agonist K1μ/Kiδ,δ-opioid receptors [6],227^a
"Cc1cc(O)cc(C)c1C[C@H](N)C(=O)N1Cc2ccccc2C[C@H]1C(=O)O [H-Dmt-Tic-OH, reference compound] (H-[Dmt]-[Tic]-OH)",Ki,μ-opioid receptors,3320 ± 435 nM
same,MVD Ke,δ receptors [3],5.7 nM
same,Ki,μ receptors [5]; [13],3320 nM
same,Agonist K1μ/Kiδ,δ-opioid receptors [6],150800^a
"Cc1cc(O)cc(C)c1C[C@H](N)C(=O)N1Cc2ccccc2C[C@H]1C(=O)NCC(=O)Nc1ccccc1 [Compound 27, H-Dmt-Tic-Gly-NH-Ph] (H-[Dmt]-[Tic]-Gly-NHPh)",Ki,δ receptors [4],0.042 nM
same,μ/δ,δ receptors [4],3.6
same,Ki,μ receptors [5]; Receptor affinity (nM) Kiμ,< 1 nM
same,Ki,μ receptors [5]; [13],0.16 nM
same,Functional Bioactivity GPI (pEC50),μ receptors [10],8.59
same,EC50,δ receptors [8],3.02 nM
same,"δ activity on MVD, in words",δ receptors [8],potent δ-agonist activity; also recorded: essentially equivalent activity as a δ agonist and a μ agonist
same,"lower antagonist activity of N,N(Me)2-Dmt-Tic-OH against this agonist than against deltorphin C and 24",δ receptors [8]; MVD,5 fold
same,"MVD, antagonist activity (pA2) N,N(CH3)2-Dmt-Tic-OH",δ receptors [8],9.04
same,"MVD, antagonist activity (pA2) naloxone",δ receptors [8],7.47
"Cc1cc(O)cc(C)c1C[C@H](N)C(=O)N1Cc2ccccc2C[C@H]1C(=O)NCc1nc2ccccc2[nH]1 [Compound 24, H-Dmt-Tic-NH—CH2-Bid]","δ activity on MVD, in words",δ receptors [8],potent δ-agonist activity
same,"MVD, antagonist activity (pA2) N,N(CH3)2-Dmt-Tic-OH",δ receptors [8],9.70
same,"MVD, antagonist activity (pA2) naloxone",δ receptors [8],7.45
same,Functional Bioactivity MVD (pEC50),δ receptors [8]; δ agonism,9.90
"Cc1cc(O)cc(C)c1C[C@H](N)C(=O)N1Cc2ccccc2C[C@H]1C(=O)NCC(=O)NCc1nc2ccccc2[nH]1 [Compound 26, H-Dmt-Tic-Gly-NH—CH2-Bid]","δ/μ selectivity, in words",δ receptors [4]; from Table IV binding,essentially non-selective
same,μ/δ,δ receptors [4],353
same,"δ activity on MVD, in words",δ receptors [8],potent δ antagonist activity
"Cc1cc(O)cc(C)c1C[C@H](N)C(=O)N1Cc2ccccc2C[C@H]1C(=O)N[C@@H](C)C(=O)O [H-Dmt-Tic-Ala-OH, reference compound] (H-[Dmt]-[Tic]-Ala-OH)",Antagonist K1μ/Kiδ,δ-opioid receptors [2],2784
same,MVD Ke,δ receptors [3],4.0 nM
same,Agonist K1μ/Kiδ,δ-opioid receptors [6],2852^a
"[^3H]N,N-(CH3)2-Dmt-Tic-OH",Kd,δ-opioid receptors [11],0.39 nM
"Cc1cc(O)cc(C)c1C[C@H](N)C(=O)N1Cc2ccccc2C[C@H]1CO [H-Dmt-Tic-ol, reference compound]",μ/δ,δ receptors [4],344
same,Ki,μ receptors [5]; [13],151 nM
"Cc1cc(O)cc(C)c1C[C@@H](C(=O)N1Cc2ccccc2C[C@H]1C(=O)O)N1CCCCC1 [Compound 3, [des-NH2-α-piperidine-1-yl]-Dmt-Tic-OH]",Ki,δ-opioid receptors [1],1.18 ± 0.1 nM
same,Agonist K1μ/Kiδ,"δ-opioid receptors [1]; selectivity, Kiδ from agonist radioligand [3H]DPDPE",1728
same,Ki,"δ-opioid receptors [2]; rat brain synaptosomes (P2), δ antagonist radioligand, mean ± SEM, n in parentheses, read-out: Kiδ(nM) [^3H]N,N(CH3)2-Dmt-Tic-OH",0.74 ± 0.3 nM
same,Antagonist K1μ/Kiδ,δ-opioid receptors [2],2755
same,Ki,μ-opioid receptors,2040 ± 264 nM
same,"bioactivity on MVD (δ), in words",δ receptors [3],detrimental for all bioactivity measurements on MVD
same,Kb,"δ receptors [3]; MVD pA2 (range), δ antagonism against deltorphin C, mean (range)",49 nM
same,MVD Ke,δ receptors [3],49 nM
same,EC50,μ receptors [12],> 10000 nM
same,"inhibition of hMDR-1 (Pgp), in words",hMDR-1,inactive
